What follows are compounds tested against T1, human NaV1.6 (hNaV1.6) (Homo sapiens, UniProt Q9UQD0) (assay: Modulation of late sodium current (INaL), PatchXpress high throughput electrophysiology). Details: HEK293, HEK-293 cells expressing recombinant human NaV1.6, late current evoked by 300 nM ATX-II, read-out: NaV 1.6 Assay Data (percent inhibition of INaL at hNaV1.6).
T1 construct: expressed in transfected cells; host or cells: HEK-293
Type: cell-based
Procedure: Functional characterization of exemplary compounds to modulate INaL expressed by the NaV1.6 voltage-gated sodium channel was accomplished using the PatchXpress™ high throughput electrophysiology platform (Molecular Devices, Sunnyvale, CA). HEK-293 cells expressing recombinant, human NaV1.6 (hNaV1.6) were grown in DMEM/high-glucose Dulbecco's modified, 10% FBS, 2 mM sodium pyruvate, 10 mM HEPES and 400 μg/mL G418. Cells were grown to 50%-80% confluency prior to harvesting. Trypsinized cells were washed, allowed to recover for 1 hour and then resuspended in extracellular recording solution at a concentration of 1×10^6 cells/ml. The onboard liquid handling facility of the PatchXpress was used for dispensing cells and applying test compounds. NaV late currents were evoked by the application of 300 nM ATX-II. INaL was evoked by depolarizing pulses to 0 mV for 200 ms from a non-inactivating holding potential (e.g., −120 mV) at a frequency of 0.1 Hz. INaL amplitude and stability were determined by analyzing the mean current amplitude over the final 20 ms of thetest pulse. Following steady state block with exemplary compounds (e.g., as described herein), a Na+ free solution containing an impermeant cation (e.g., Choline or NDMG) was added to confirm the identify of the sodium current. Percent steady-state inhibition of INaL was calculated as: [(INaL_compound)/(INaL_control)]*100, where INaL_compound and INaL_control represent INaL recorded in the presence or absence of compound, respectively.

T1 sequence (Q9UQD0 whole entry): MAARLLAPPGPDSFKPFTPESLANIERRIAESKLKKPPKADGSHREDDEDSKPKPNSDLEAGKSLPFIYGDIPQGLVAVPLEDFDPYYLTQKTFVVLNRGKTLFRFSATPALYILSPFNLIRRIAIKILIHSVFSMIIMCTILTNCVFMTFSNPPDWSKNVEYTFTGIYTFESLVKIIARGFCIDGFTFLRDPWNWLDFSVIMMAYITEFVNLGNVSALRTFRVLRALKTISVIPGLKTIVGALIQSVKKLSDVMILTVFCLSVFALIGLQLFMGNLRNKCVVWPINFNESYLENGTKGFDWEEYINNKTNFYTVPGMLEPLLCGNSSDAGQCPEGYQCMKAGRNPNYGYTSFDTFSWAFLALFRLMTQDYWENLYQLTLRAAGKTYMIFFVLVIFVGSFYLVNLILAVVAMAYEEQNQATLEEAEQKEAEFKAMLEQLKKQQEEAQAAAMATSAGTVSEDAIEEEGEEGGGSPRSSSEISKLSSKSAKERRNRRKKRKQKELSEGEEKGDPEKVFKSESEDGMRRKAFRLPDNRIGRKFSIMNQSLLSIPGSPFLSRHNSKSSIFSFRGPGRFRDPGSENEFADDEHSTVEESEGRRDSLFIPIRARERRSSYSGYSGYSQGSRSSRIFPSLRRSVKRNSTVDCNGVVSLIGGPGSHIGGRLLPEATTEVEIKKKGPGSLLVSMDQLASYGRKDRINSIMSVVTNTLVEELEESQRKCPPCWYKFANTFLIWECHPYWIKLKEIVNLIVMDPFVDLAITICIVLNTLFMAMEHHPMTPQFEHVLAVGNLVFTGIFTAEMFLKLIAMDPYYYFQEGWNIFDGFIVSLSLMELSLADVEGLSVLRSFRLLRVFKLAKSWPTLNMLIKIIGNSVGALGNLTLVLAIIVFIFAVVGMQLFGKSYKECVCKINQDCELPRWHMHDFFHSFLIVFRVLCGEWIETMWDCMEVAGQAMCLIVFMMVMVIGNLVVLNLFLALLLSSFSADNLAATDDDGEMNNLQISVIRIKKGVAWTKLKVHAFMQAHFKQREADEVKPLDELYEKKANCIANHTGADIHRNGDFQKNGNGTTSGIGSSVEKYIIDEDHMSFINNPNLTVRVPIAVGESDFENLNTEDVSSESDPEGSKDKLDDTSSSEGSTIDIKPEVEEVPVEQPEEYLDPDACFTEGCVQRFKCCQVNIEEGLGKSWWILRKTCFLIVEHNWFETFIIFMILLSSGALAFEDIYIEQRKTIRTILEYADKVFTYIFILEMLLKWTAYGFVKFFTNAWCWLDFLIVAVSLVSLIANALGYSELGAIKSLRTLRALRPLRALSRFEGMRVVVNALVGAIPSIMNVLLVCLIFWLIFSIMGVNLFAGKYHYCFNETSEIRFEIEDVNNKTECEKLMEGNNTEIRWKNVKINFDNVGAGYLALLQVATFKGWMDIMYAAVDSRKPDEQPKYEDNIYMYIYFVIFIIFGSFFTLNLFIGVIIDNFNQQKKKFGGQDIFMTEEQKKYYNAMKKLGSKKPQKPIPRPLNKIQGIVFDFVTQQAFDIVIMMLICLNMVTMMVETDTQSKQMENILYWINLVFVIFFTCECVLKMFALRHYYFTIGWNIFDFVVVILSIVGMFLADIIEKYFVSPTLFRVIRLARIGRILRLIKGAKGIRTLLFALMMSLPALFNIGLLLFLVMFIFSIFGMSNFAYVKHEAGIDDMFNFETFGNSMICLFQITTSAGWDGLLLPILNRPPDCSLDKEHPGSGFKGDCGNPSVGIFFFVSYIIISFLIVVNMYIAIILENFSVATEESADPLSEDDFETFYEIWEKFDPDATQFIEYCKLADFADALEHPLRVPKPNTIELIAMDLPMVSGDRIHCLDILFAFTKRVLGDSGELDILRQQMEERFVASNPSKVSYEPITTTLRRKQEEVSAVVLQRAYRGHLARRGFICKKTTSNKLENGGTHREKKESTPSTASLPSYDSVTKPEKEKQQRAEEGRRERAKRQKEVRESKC

Row | inhibition at 1 µM | SMILES
1 | 30 to 70% | COC(F)(F)c1nnc2cnc(-c3c(C)cc(OC(F)(F)F)cc3F)cn12 [Compound 43, 3-[difluoro(methoxy)methyl]-6-[2-fluoro-6-methyl-4-(trifluoromethoxy)phenyl]-[1,2,4]triazolo[4,3-a]pyrazine]
2 | > 70% | COCc1cc(OC(F)(F)F)ccc1-c1cn2c(C(F)(F)OC)nnc2cn1 [Compound 1, 3-[difluoro(methoxy)methyl]-6-[2-(methoxymethyl)-4-(trifluoromethoxy)phenyl]-[1,2,4]triazolo[4,3-a]pyrazine]
3 | 30 to 70% | Cc1cc(OC(F)(F)F)ccc1-c1cn2c(COC3CC3)nnc2cn1 [Compound 20, 3-(cyclopropoxymethyl)-6-[2-methyl-4-(trifluoromethoxy)phenyl]-[1,2,4]triazolo[4,3-a]pyrazine]
4 | 30 to 70% | COC(F)(F)c1nnc2ccc(-c3ccc(OC(F)(F)F)cc3C)nn12 [Compound 14, 3-[difluoro(methoxy)methyl]-6-[2-methyl-4-(trifluoromethoxy)phenyl]-[1,2,4]triazolo[4,3-b]pyridazine]
5 | > 70% | COC(F)(F)c1nnc2cnc(-c3ccc(OC(F)(F)F)cc3C)cn12 [Compound 2, 3-[difluoro(methoxy)methyl]-6-[2-methyl-4-(trifluoromethoxy)phenyl]-[1,2,4]triazolo[4,3-a]pyrazine]
6 | > 70% | Cc1cc(OC(F)(F)F)ccc1-c1cn2c(COCc3ccccc3)nnc2cn1 [Compound 6, 3-((benzyloxy)methyl)-6-(2-methyl-4-(trifluoromethoxy)phenyl)-[1,2,4]triazolo[4,3-a]pyrazine]
7 | > 70% | CCOC(F)(F)c1nnc2cnc(-c3ccc(OC(F)(F)F)cc3C3CC3)cn12 [Compound 34, 6-[2-cyclopropyl-4-(trifluoromethoxy)phenyl]-3-[ethoxy(difluoro)methyl]-[1,2,4]triazolo[4,3-a]pyrazine]
8 | 30 to 70% | CCOC(F)(F)c1nnc2cnc(-c3ccc(OC(C)C)cc3C)cn12 [Compound 23, 3-(ethoxydifluoromethyl)-6-(4-isopropoxy-2-methylphenyl)-[1,2,4]triazolo[4,3-a]pyrazine]
9 | > 70% | COC(F)(F)c1nnc2cnc(-c3cc(F)c(OC(F)(F)F)cc3C)cn12 [Compound 40, 3-[difluoro(methoxy)methyl]-6-[5-fluoro-2-methyl-4-(trifluoromethoxy)phenyl]-[1,2,4]triazolo[4,3-a]pyrazine]
10 | > 70% | COC(F)(F)c1nnc2cnc(-c3cc(C)c(OC(F)(F)F)cc3F)cn12 [Compound 42, 3-[difluoro(methoxy)methyl]-6-[2-fluoro-5-methyl-4-(trifluoromethoxy)phenyl]-[1,2,4]triazolo[4,3-a]pyrazine]
11 | > 70% | CCc1cc(OC(F)(F)F)ccc1-c1cn2c(C(F)(F)OC)nnc2cn1 [Compound 26, 3-[difluoro(methoxy)methyl]-6-[2-ethyl-4-(trifluoromethoxy)phenyl]-[1,2,4]triazolo[4,3-a]pyrazine]
12 | > 70% | CCOC(F)(F)c1nnc2cnc(-c3ccc(OC(F)(F)F)cc3COC)cn12 [Compound 19, 3-[ethoxy (difluoro)methyl]-6-[2-(methoxymethyl)-4-(trifluoromethoxy)phenyl]-[1,2,4] triazolo [4,3-a] pyrazine]
13 | < 30% | CCOCc1nnc2ccc(-c3ccc(OC(F)(F)F)cc3C)nn12 [Compound 13, 3-(ethoxymethyl)-6-[2-methyl-4-(trifluoromethoxy)phenyl]-[1,2,4]triazolo[4,3-b]pyridazine]
14 | < 30% | CCOC(C)(C)c1nnc2cnc(-c3ccc(OC(F)(F)F)cc3C)cn12 [Compound 41, 3-(1-ethoxy-1-methyl-ethyl)-6-[2-methyl-4-(trifluoromethoxy)phenyl]-[1,2,4]triazolo[4,3-a]pyrazine]

Source: US12479844B2, “Ion channel modulators” (Praxis Precision Medicines, Inc., priority 2018, dated 2025)
